Experimental data as given in patent publication US9718790B2, “Triazine derivative and pharmaceutical composition having an analgesic activity comprising the same” (SHIONOGI & CO., LTD., priority 2010, dated 2017).
pIC50: −log10 of the molar value. Values joined by “and” are separate entries in the source; they are usually repeats but may differ in a detail not shown here. Identical values can stand only once.

What follows are compounds tested against human P2X3 receptor (Homo sapiens (Human), UniProt P56373) (assay: Evaluation of human P2X3 receptor inhibitory activity (Fluo-3 calcium fluorescence, FDSS 3000, ATP stimulation)). Conditions: C6BU-1 cells stably expressing human P2X3 receptor.
Sequence of human P2X3 receptor (P56373 whole entry): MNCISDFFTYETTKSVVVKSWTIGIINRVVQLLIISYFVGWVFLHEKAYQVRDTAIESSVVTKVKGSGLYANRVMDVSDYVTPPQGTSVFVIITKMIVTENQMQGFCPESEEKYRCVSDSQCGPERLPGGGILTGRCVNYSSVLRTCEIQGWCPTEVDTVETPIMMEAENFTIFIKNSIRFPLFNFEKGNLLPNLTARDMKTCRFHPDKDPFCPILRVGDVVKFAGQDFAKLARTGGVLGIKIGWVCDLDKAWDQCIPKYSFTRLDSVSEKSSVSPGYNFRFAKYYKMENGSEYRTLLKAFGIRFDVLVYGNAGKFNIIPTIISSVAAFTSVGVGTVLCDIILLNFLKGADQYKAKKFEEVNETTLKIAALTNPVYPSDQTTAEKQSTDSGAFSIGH
Assay type: cell-based
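Note: stimulus was 50 nM ATP with fluorescence followed for 3 min, and the response per well was peak post-ATP fluorescence divided by the reading at measurement start.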

Cc1ccc(Cn2c(=O)n(CCC(=O)O)c(=O)[nH]/c2=N\c2cccc(Cl)c2)cc1 [Compound I-2047] and CCCc1ccc(/N=c2\[nH]c(=O)n(CCC(=O)O)c(=O)n2Cc2ccc(C)cc2)cc1C [Compound I-1223] are within 0.2 log units of each other in pIC50: 6.42 for the first, 6.53 for the second.

CNC(=O)Cn1c(=O)[nH]/c(=N\c2ccc(O[C@H](C)C(F)(F)F)cc2)n(Cc2ccc(Cl)cc2)c1=O [Compound I-1960] and C[C@@H](Oc1ccc(/N=c2\[nH]c(=O)n(CC(N)=O)c(=O)n2Cc2ccc(Cl)cc2)cc1)C(F)(F)F [Compound I-1959] are within 0.2 log units of each other in pIC50: 7.27 for the first, 7.19 for the second.

First: COC(=O)Cn1c(=O)[nH]/c(=N\c2ccc(OCC3CC3)cc2)n(Cc2ccc(Cl)cc2)c1=O [Compound I-1930]
Second: CCn1c(=O)[nH]/c(=N\c2ccc(Oc3cc(C(N)=O)ccn3)cc2)n(Cc2ccc(Cl)cc2)c1=O [Compound I-2165]
The pIC50 of the first is 1.53 log units higher: 7.54 for the first, 6.01 for the second.

First: Cc1ccc(Cn2c(=O)n([C@H](C)[C@H](C)C(=O)O)c(=O)[nH]/c2=N\c2ccc(OC(C)C)cc2)cc1 [Compound I-1336]
Second: Cc1ccc(Cn2c(=O)n([C@@H](C)[C@@H](C)C(=O)O)c(=O)[nH]/c2=N\c2ccc(CC(C)C)c(Cl)c2)cc1 [Compound I-1443]
The pIC50 of the first is 1.07 log units lower: 7.15 for the first, 8.22 for the second. The second is the more potent here.

First: Cc1cc2cc(/N=c3\[nH]c(=O)n(CCCO)c(=O)n3Cc3ccc(Cl)cc3)ccc2o1 [Compound I-2027]
Second: Cc1cc(/N=c2\[nH]c(=O)n(CCCC(=O)NCCO)c(=O)n2Cc2ccc(Cl)cc2)ccc1OC(C)C [Compound I-0788]
The pIC50 of the first is 0.28 log units higher: 7.77 for the first, 7.49 for the second. The first is the more potent here.

Going from Cc1cc(Oc2ccc(/N=c3\[nH]c(=O)n(CCCC(=O)O)c(=O)n3Cc3ccc(Cl)cc3)cc2)ccn1 [Compound I-1404] to O=C(O)CCCn1c(=O)[nH]/c(=N\c2ccc(Oc3ccncc3)cc2)n(Cc2ccc(Cl)cc2)c1=O [Compound I-1259], the pIC50 rises from 7.62 to 7.96 (0.34 log units).

First: COC(=O)[C@@H](C)Cn1c(=O)[nH]/c(=N\c2ccc(CC(C)C)c(OC)c2)n(Cc2ccc(C)cc2)c1=O [Compound I-1249]
Second: CCc1ccc(/N=c2\[nH]c(=O)n(C[C@H](C)C(=O)OC)c(=O)n2Cc2ccc(Cl)cc2)cc1C [Compound I-0815]
The pIC50 of the first is 0.96 log units higher: 7.68 for the first, 6.72 for the second.

Going from CC(C)Oc1ccc(/N=c2\[nH]c(OCC(N)=O)nc(=O)n2Cc2ccc(Cl)cc2)cc1F [Compound I-0587] to COCc1cc(/N=c2\[nH]c(=O)n(CC(C)(C)C(=O)O)c(=O)n2Cc2ccc(Cl)cc2)ccc1OC(C)C [Compound I-1430], the pIC50 falls from 6.52 to 6.15 (0.37 log units).

Cc1ccc(Cn2c(=O)n(CCCCC(=O)O)c(=O)[nH]/c2=N\c2ccc3nc(C)sc3c2)cc1 [Compound I-2158] and COc1cc(/N=c2\[nH]c(=O)n(CC(C)(C)C(=O)O)c(=O)n2Cc2ccc(C)cc2)ccc1OC(C)C [Compound I-1280] are within 0.2 log units of each other in pIC50: 7.54 for the first, 7.57 for the second.

CC(C)Oc1ccc(/N=c2\[nH]c(=O)n(CC(=O)NCC3CCOCC3)c(=O)n2Cc2ccc(Cl)cc2)cc1Cl [Compound I-0664] and CCOc1ccc(/N=c2\[nH]c(=O)n(C[C@@H](C)C(=O)OC)c(=O)n2Cc2ccc(Cl)cc2)cc1Cl [Compound I-0590] are within 0.2 log units of each other in pIC50: 8.22 for the first, 8.40 for the second.

Compared with CC1(C)OCC(Cn2c(=O)[nH]/c(=N\c3ccc4nc(C5CC5)sc4c3)n(Cc3ccc(Cl)cc3)c2=O)CO1 [Compound I-1982], Cc1cc(/N=c2\[nH]c(=O)n(Cc3ccc(C(=O)O)o3)c(=O)n2Cc2ccc(Cl)cc2)ccc1OC(C)C [Compound I-0710] is 0.33 log units lower in pIC50: 8.05 for the first, 7.72 for the second.

Cc1ccc(Cn2c(=O)n(C[C@H](C)C(=O)O)c(=O)[nH]/c2=N\c2cnc(OC3CCC3)c(Cl)c2)cc1 [Compound I-1410] and CCCOc1ccc(/N=c2\[nH]c(=O)n(C[C@H](C)C(=O)O)c(=O)n2Cc2ccc(Cl)cc2)cc1C [Compound I-0711] are within 0.2 log units of each other in pIC50: 7.25 for the first, 7.40 for the second.

First: COc1cc(/N=c2\[nH]c(=O)n([C@@H](C)[C@@H](C)C(=O)O)c(=O)n2Cc2ccc(Cl)cc2)ccc1CC(C)C [Compound I-1366]
Second: COC(=O)[C@@H](C)[C@@H](C)n1c(=O)[nH]/c(=N\c2cccc(C(F)(F)F)c2)n(Cc2ccc(Cl)cc2)c1=O [Compound I-1317]
The pIC50 of the first is 0.72 log units higher: 7.70 for the first, 6.98 for the second. The first is the more potent here.

Compared with O=c1[nH]c(=O)n(Cc2ccc(Cl)cc2)/c(=N/c2ccc(Oc3ccnc(CO)c3)cc2)[nH]1 [Compound I-1962], COc1ccc(CN2C(=O)CC[C@H]2Cn2c(=O)[nH]/c(=N\c3ccc(OC(C)C)c(F)c3)n(Cc3ccc(Cl)cc3)c2=O)cc1 [Compound I-0684] is 0.33 log units higher in pIC50: 7.19 for the first, 7.52 for the second. The second is the more potent here.

CCOc1ccc(/N=c2\[nH]c(=O)n(C[C@@H](C)C(=O)OC)c(=O)n2CC2CCCCC2)cc1Cl [Compound I-0632] was tested, and the pIC50 was 7.96.

Same assay, conditions: C6BU-1 cells stably expressing human P2X3 receptor, Fluo-3 fluorescence, FDSS 3000

Cc1ccc(Cn2c(=O)n(C[C@H](C)C(=O)O)c(=O)[nH]/c2=N\c2ccc(Oc3ccncc3)cc2)cc1 [Compound I-1122] and COC(=O)[C@@H](C)Cn1c(=O)[nH]/c(=N\c2ccc(Oc3cccnc3)cc2)n(Cc2ccc(C)cc2)c1=O [Compound I-1126] are the same in pIC50: 8.10 for the first, 8.10 for the second.

First: CC[C@@H](C)Oc1ccc(/N=c2\[nH]c(=O)n([C@H](C)CC(=O)OC)c(=O)n2Cc2ccc(C)cc2)cc1C [Compound I-0938]
Second: CCOc1ccc(/N=c2\[nH]c(=O)n([C@@H](C)[C@@H](C)C(=O)O)c(=O)n2Cc2ccc(C)cc2)cc1Cl [Compound I-0973]
The pIC50 of the first is 0.26 log units lower: 7.46 for the first, 7.72 for the second. The second is the more potent here.

CCOc1ccc(/N=c2\[nH]c(=O)n(C[C@H](O)CO)c(=O)n2Cc2ccc(Cl)cc2)cc1Cl [Compound I-1907] and CCc1nc2ccc(/N=c3\[nH]c(=O)n(CC(=O)NC)c(=O)n3Cc3ccc(Cl)cc3)cc2s1 [Compound I-1807] are within 0.2 log units of each other in pIC50: 8.10 for the first, 8.22 for the second.

COC(=O)[C@@H](C)Cn1c(=O)[nH]/c(=N\c2ccc(CC(C)C)c(C)c2)n(Cc2ccc(Cl)cc2)c1=O [Compound I-0947] and COCO[C@@H](Cn1c(=O)[nH]/c(=N\c2ccc(OC(C)C)c(C)c2)n(Cc2ccc(Cl)cc2)c1=O)C(=O)OC [Compound I-0993, (S)-1-(4-chlorobenzyl)-6-(3-mehyl-4-isopropoxyphenylimino)-3-[2-methoxycarbonyl-2-(methoxymethyloxy)ethyl]-1,3,5-triazinane-2,4-dion] are within 0.2 log units of each other in pIC50: 7.62 for the first, 7.70 for the second.

COC(=O)[C@@H](C)Cn1c(=O)[nH]/c(=N\c2ccc(OC3CCCCC3)nc2)n(Cc2ccc(C)cc2)c1=O [Compound I-1184] and CCOC(=O)CCn1c(=O)[nH]/c(=N\c2ccc(OCC(C)(C)C)cc2)n(Cc2ccc(C)cc2)c1=O [Compound I-1056] are within 0.2 log units of each other in pIC50: 6.86 for the first, 6.75 for the second.

First: CNC(=O)c1cc(Oc2ccc(/N=c3\[nH]c(=O)n(CCO)c(=O)n3Cc3ccc(Cl)cc3)cc2)ccn1 [Compound I-1735]
Second: COC(=O)Cn1c(=O)[nH]/c(=N\c2ccc(Oc3ccc(OC)nc3)cc2)n(Cc2ccc(Cl)cc2)c1=O [Compound I-1753]
The pIC50 of the first is 0.47 log units higher: 8.52 for the first, 8.05 for the second.

Compared with C[C@@H](Cn1c(=O)[nH]/c(=N\c2ccc(Oc3ccccc3)cc2)n(Cc2ccc(Cl)cc2)c1=O)C(=O)O [Compound I-0991, (S)-1-(4-chlorobenzyl)-3-(2-hydroxycarbonylpropyl)-6-(4-phenoxyphenylimino)-1,3,5-triazinane-2,4-dion], C[C@@H](C(=O)O)[C@H](C)n1c(=O)[nH]/c(=N\c2ccc3[nH]ccc3c2)n(Cc2ccc(Cl)cc2)c1=O [Compound I-1781] is 1.37 log units lower in pIC50: 7.66 for the first, 6.29 for the second. The first is the more potent here.

Compared with CNC(=O)CCn1c(=O)[nH]/c(=N\c2ccc3nc(C)sc3c2)n(Cc2ccc(C)cc2)c1=O [Compound I-1570], C[C@@H](C(=O)O)[C@H](C)n1c(=O)[nH]/c(=N\c2ccc3ncsc3c2)n(Cc2ccc(Cl)cc2)c1=O [Compound I-1589] is 1.30 log units lower in pIC50: 8.10 for the first, 6.80 for the second. The first is the more potent here.

With Cc1cc(/N=c2\[nH]c(=O)n(C[C@H](C)C(=O)O)c(=O)n2Cc2ccc(Cl)cc2)ccc1CC(C)C [Compound I-0949] the pIC50 was 8.10 and 7.68.

Same assay, conditions: human P2X3 receptor, Test Example 1

First: CCOC(=O)Cn1c(=O)[nH]/c(=N\c2ccc(Oc3cnsn3)cc2)n(Cc2ccc(Cl)cc2)c1=O [Compound I-2629]
Second: O=C(O)Cn1c(=O)[nH]/c(=N\c2ccc(Oc3cnsn3)cc2)n(Cc2ccc(Cl)cc2)c1=O [Compound I-2643]
The pIC50 of the first is 1.91 log units higher: 8.22 for the first, 6.31 for the second.

Cc1ccc(Cn2c(=O)n(CC3(C(=O)O)COC3)c(=O)[nH]/c2=N\c2ccc(OC(C)C)c(Cl)c2)cc1 [Compound I-1495] and Cc1cc(/N=c2\[nH]c(=O)n(CC3(C(=O)O)COC3)c(=O)n2Cc2ccc(Cl)cc2)ccc1OC(C)C [Compound I-1481] are within 0.2 log units of each other in pIC50: 7.59 for the first, 7.41 for the second.

Going from O=c1[nH]/c(=N\c2ccc(Oc3ccc4[nH]cnc4c3)cc2)n(Cc2ccc(Cl)cc2)c(=O)n1CCO [Compound I-2449] to COCCn1c(=O)[nH]/c(=N\c2ccc(Oc3ccnc(C(=O)O)c3)cc2)n(Cc2ccc(Cl)cc2)c1=O [Compound I-2552], the pIC50 rises from 8.05 to 8.30 (0.25 log units).

First: CCOC(=O)C1(Cn2c(=O)[nH]/c(=N\c3ccc4nc(C)sc4c3)n(Cc3ccc(Cl)cc3)c2=O)CC1 [Compound I-1537]
Second: CCOCc1ccc(/N=c2\[nH]c(=O)n(C[C@H](C)C(=O)O)c(=O)n2Cc2ccc(C)cc2)cc1Cl [Compound I-1502]
The pIC50 of the first is 1.55 log units higher: 8.52 for the first, 6.97 for the second.

Compared with O=C(O)Cn1c(=O)[nH]/c(=N\c2ccc(Oc3ccon3)cc2)n(Cc2ccc(Cl)cc2)c1=O [Compound I-2504], O=C(Cn1c(=O)[nH]/c(=N\c2ccc(Oc3ccon3)cc2)n(Cc2ccc(Cl)cc2)c1=O)NCCO [Compound I-2680] is 1.49 log units higher in pIC50: 6.43 for the first, 7.92 for the second. The second is the more potent here.

Going from Cc1cc(Oc2ccc(/N=c3\[nH]c(=O)n(C[C@@H]4COC(C)(C)O4)c(=O)n3Cc3ccc(Cl)cc3)cc2)no1 [Compound I-2228] to NCCn1c(=O)[nH]/c(=N\c2ccc(Oc3ccon3)cc2)n(Cc2ccc(Cl)cc2)c1=O [Compound I-2523], the pIC50 falls from 8.30 to 6.77 (1.53 log units). The first is the more potent here.

CCn1c(=O)[nH]/c(=N\c2ccc(Oc3cccc(C#N)n3)cc2)n(Cc2ccc(Cl)cc2)c1=O [Compound I-2302] and COCCn1c(=O)[nH]/c(=N\c2ccc(Oc3cccc(C#N)n3)cc2)n(Cc2ccc(Cl)cc2)c1=O [Compound I-2538] are within 0.2 log units of each other in pIC50: 8.70 for the first, 8.52 for the second.

Going from CCn1c(=O)[nH]/c(=N\c2ccc(Oc3ncccc3C(N)=O)cc2)n(Cc2ccc(Cl)cc2)c1=O [Compound I-2365] to CCCOc1ccc(/N=c2\[nH]c(=O)n(C[C@H](CC)C(=O)OC)c(=O)n2Cc2ccc(Cl)cc2)cc1 [Compound I-0888], the pIC50 rises from 6.68 to 7.52 (0.84 log units). The second is the more potent here.

Compound CSc1n/c(=N\c2ccc(OC(C)C)cc2)n(Cc2ccc(Cl)cc2)c(=O)n1C(C)C [Compound I-2301] has a pIC50 of 6.36.
